Values of other authors as cited in patent US20190328656A1, “TARGETED DELIVERY OF PROGESTINS AND ESTROGENS VIA VAGINAL RING DEVICES FOR FERTILITY CONTROL AND HRT PRODUCTS” (Evestra, Inc., priority 2018, published 2019).

Key:
[1] = compared to estriol
[2] = elimination from the blood stream

half-life [2] | SMILES | estrogenic activity [1]
 | C[C@]12CC[C@@H]3c4ccc(O)cc4CC[C@H]3[C@@H]1[C@@H](O)[C@@H](O)[C@@H]2O [Estetrol] | very weak estrogenic activity
around 1 hour | C[C@]12CC[C@@H]3c4ccc(O)cc4CC[C@H]3[C@@H]1CC[C@@H]2O [17-beta estradiol] | 
